In PubChem BioAssay AID1259407 (Chemical Carcinogenesis Research Information System (CCRIS), 2018):
Calls of active or inactive are those of the source. No rule for the calls is given here.

System: CCRIS mutagenicity, Ames/micronucleus/aberration tests
Test: CCRIS mutagenicity studies
[1] = Test System: AMES SALMONELLA TYPHIMURIUM, Strain/Indicator: TA98, Metabolic Activation: NONE, Method: STANDARD PLATE
[2] = Test System: AMES SALMONELLA TYPHIMURIUM, Strain/Indicator: TA98, Metabolic Activation: RAT, LIVER, S-9, AROCLOR 1254, Method: STANDARD PLATE
[3] = Test System: AMES SALMONELLA TYPHIMURIUM, Strain/Indicator: TA100, Metabolic Activation: NONE, Method: STANDARD PLATE
[4] = Test System: AMES SALMONELLA TYPHIMURIUM, Strain/Indicator: TA100, Metabolic Activation: RAT, LIVER, S-9, AROCLOR 1254, Method: STANDARD PLATE

`Cc1cccc2cc3ccccc3cc12` was tested, and the mutagenic call [1] was “inactive; negative”, the mutagenic call [2] was “inactive; negative” and the mutagenic call [3] was “inactive; negative”. For the same compound, the mutagenic call [4] was “inactive; negative”.
In the case of `NC(=O)N(CCCCO)N=O`, the mutagenic call (Test System: E. COLI B, Strain/Indicator: H/R30R, Metabolic Activation: NONE) is reported as “active; positive” and the mutagenic call (Test System: E. COLI B, Strain/Indicator: HS30R, Metabolic Activation: NONE) is reported as “active; positive”.
`BrCc1c2ccccc2cc2ccc3ccccc3c12` was tested, and the mutagenic call [1] was “active; positive” and the mutagenic call [3] was “active; positive”.
`Cc1cccc(C2CO2)c1` (stereo unspecified) was tested, and the mutagenic call (Test System: E. COLI, Strain/Indicator: WP2 UVRA, Metabolic Activation: NONE, Method: STANDARD PLATE) was “active; positive”.
With `Cl` the mutagenic call (End Point: IN VITRO CHROMOSOMAL ABERRATIONS, Test System: CHO-WBL CELLS, Metabolic Activation: NONE) was “active; positive (structural changes); osmolality of solution decisive factor”, the mutagenic call (Test System: AMES SALMONELLA TYPHIMURIUM, Strain/Indicator: TA97, Metabolic Activation: NONE, Method: PREINCUBATION) was “inactive; negative” and the mutagenic call (Test System: AMES SALMONELLA TYPHIMURIUM, Strain/Indicator: TA97, Metabolic Activation: NONE, Method: STANDARD PLATE) was “inactive; negative”. The mutagenic call (Test System: AMES SALMONELLA TYPHIMURIUM, Strain/Indicator: TA97, Metabolic Activation: RAT, LIVER, S-9, AROCLOR 1254, Method: PREINCUBATION) was “inactive; negative”, the mutagenic call (Test System: AMES SALMONELLA TYPHIMURIUM, Strain/Indicator: TA97, Metabolic Activation: RAT, LIVER, S-9, PHENOBARBITAL, Method: STANDARD PLATE) was “inactive; negative” and the mutagenic call (Test System: AMES SALMONELLA TYPHIMURIUM, Strain/Indicator: TA98, Metabolic Activation: NONE, Method: PREINCUBATION) was “inactive; negative”. For the same compound, the mutagenic call [1] was “inactive; negative”, the mutagenic call (Test System: AMES SALMONELLA TYPHIMURIUM, Strain/Indicator: TA98, Metabolic Activation: RAT, LIVER, S-9, KC 500, Method: PREINCUBATION) was “inactive; negative” and the mutagenic call (Test System: AMES SALMONELLA TYPHIMURIUM, Strain/Indicator: TA98, Metabolic Activation: RAT, LIVER, S-9, PHENOBARBITAL, Method: STANDARD PLATE) was “inactive; negative”. The mutagenic call (Test System: AMES SALMONELLA TYPHIMURIUM, Strain/Indicator: TA100, Metabolic Activation: NONE, Method: PREINCUBATION) was “inactive; negative”, the mutagenic call [3] was “inactive; negative” and the mutagenic call (Test System: AMES SALMONELLA TYPHIMURIUM, Strain/Indicator: TA100, Metabolic Activation: RAT, LIVER, S-9, KC 500, Method: PREINCUBATION) was “inactive; negative”. For the same compound, the mutagenic call (Test System: AMES SALMONELLA TYPHIMURIUM, Strain/Indicator: TA100, Metabolic Activation: RAT, LIVER, S-9, PHENOBARBITAL, Method: STANDARD PLATE) was “inactive; negative”, the mutagenic call (Test System: AMES SALMONELLA TYPHIMURIUM, Strain/Indicator: TA102, Metabolic Activation: NONE, Method: PREINCUBATION) was “inactive; negative” and the mutagenic call (Test System: AMES SALMONELLA TYPHIMURIUM, Strain/Indicator: TA102, Metabolic Activation: RAT, LIVER, S-9, AROCLOR 1254, Method: PREINCUBATION) was “inactive; negative”. The mutagenic call (Test System: AMES SALMONELLA TYPHIMURIUM, Strain/Indicator: TA1535, Metabolic Activation: NONE, Method: PREINCUBATION) was “inactive; negative”, the mutagenic call (Test System: AMES SALMONELLA TYPHIMURIUM, Strain/Indicator: TA1535, Metabolic Activation: NONE, Method: STANDARD PLATE) was “inactive; negative” and the mutagenic call (Test System: AMES SALMONELLA TYPHIMURIUM, Strain/Indicator: TA1535, Metabolic Activation: RAT, LIVER, S-9, KC 500, Method: PREINCUBATION) was “inactive; negative”. The mutagenic call (Test System: AMES SALMONELLA TYPHIMURIUM, Strain/Indicator: TA1535, Metabolic Activation: RAT, LIVER, S-9, PHENOBARBITAL, Method: STANDARD PLATE) was “inactive; negative”, the mutagenic call (Test System: AMES SALMONELLA TYPHIMURIUM, Strain/Indicator: TA1537, Metabolic Activation: NONE, Method: PREINCUBATION) was “inactive; negative” and the mutagenic call (Test System: AMES SALMONELLA TYPHIMURIUM, Strain/Indicator: TA1537, Metabolic Activation: NONE, Method: STANDARD PLATE) was “inactive; negative”. For the same compound, the mutagenic call (Test System: AMES SALMONELLA TYPHIMURIUM, Strain/Indicator: TA1537, Metabolic Activation: RAT, LIVER, S-9, KC 500, Method: PREINCUBATION) was “inactive; negative”, the mutagenic call (Test System: AMES SALMONELLA TYPHIMURIUM, Strain/Indicator: TA1537, Metabolic Activation: RAT, LIVER, S-9, PHENOBARBITAL, Method: STANDARD PLATE) was “inactive; negative” and the mutagenic call (Test System: AMES SALMONELLA TYPHIMURIUM, Strain/Indicator: TA1538, Metabolic Activation: NONE, Method: PREINCUBATION) was “inactive; negative”. The mutagenic call (Test System: AMES SALMONELLA TYPHIMURIUM, Strain/Indicator: TA1538, Metabolic Activation: NONE, Method: STANDARD PLATE) was “inactive; negative”, the mutagenic call (Test System: AMES SALMONELLA TYPHIMURIUM, Strain/Indicator: TA1538, Metabolic Activation: RAT, LIVER, S-9, KC 500, Method: PREINCUBATION) was “inactive; negative” and the mutagenic call (Test System: AMES SALMONELLA TYPHIMURIUM, Strain/Indicator: TA1538, Metabolic Activation: RAT, LIVER, S-9, PHENOBARBITAL, Method: STANDARD PLATE) was “inactive; negative”. For the same compound, the mutagenic call (Test System: E. COLI, Strain/Indicator: WP2 UVRA, Metabolic Activation: NONE, Method: PREINCUBATION) was “inactive; negative”, the mutagenic call (Test System: E. COLI, Strain/Indicator: WP2 UVRA, Metabolic Activation: NONE, Method: SPOT TEST) was “inactive; negative” and the mutagenic call (Test System: E. COLI, Strain/Indicator: WP2 UVRA, Metabolic Activation: RAT, LIVER, S-9, KC 500, Method: PREINCUBATION) was “inactive; negative”. The mutagenic call (Test System: MOUSE LYMPHOMA, Strain/Indicator: L5178Y (TK+/TK-), Metabolic Activation: NONE, Method: SUSPENSION/PLATE) was “inactive; negative”, the mutagenic call (Test System: MOUSE LYMPHOMA, Strain/Indicator: L5178Y (TK+/TK-), Metabolic Activation: RAT, LIVER, S-9, AROCLOR 1254, Method: SUSPENSION/PLATE) was “active; positive” and the mutagenic call (Test System: MOUSE LYMPHOMA, Strain/Indicator: L5178Y (TK+/TK-), Metabolic Activation: RAT, LIVER, S-9, Method: SUSPENSION/PLATE) was “active; positive”.
`CC(=O)Nc1ccc(Oc2c(Cl)cc(Cl)cc2Cl)cc1` was tested, and the mutagenic call [2] was “inactive; negative”, the mutagenic call (Test System: AMES SALMONELLA TYPHIMURIUM, Strain/Indicator: TA98, Metabolic Activation: S-9, Method: STANDARD PLATE) was “inactive; negative” and the mutagenic call [3] was “inactive; negative”. The mutagenic call [4] was “active; positive”, the mutagenic call (Test System: AMES SALMONELLA TYPHIMURIUM, Strain/Indicator: TA100, Metabolic Activation: RAT, LIVER, S-9, KANECLOR 500, Method: STANDARD PLATE) was “active; positive” and the mutagenic call (Test System: AMES SALMONELLA TYPHIMURIUM, Strain/Indicator: TA100, Metabolic Activation: S-9, Method: STANDARD PLATE) was “active; positive”. For the same compound, the mutagenic call (Test System: AMES SALMONELLA TYPHIMURIUM, Strain/Indicator: YG1021, Metabolic Activation: RAT, LIVER, S-9, AROCLOR 1254, Method: STANDARD PLATE) was “inactive; negative”, the mutagenic call (Test System: AMES SALMONELLA TYPHIMURIUM, Strain/Indicator: YG1021, Metabolic Activation: S-9, Method: STANDARD PLATE) was “inactive; negative” and the mutagenic call (Test System: AMES SALMONELLA TYPHIMURIUM, Strain/Indicator: YG1024, Metabolic Activation: RAT, LIVER, S-9, AROCLOR 1254, Method: STANDARD PLATE) was “active; positive”. For the same compound, the mutagenic call (Test System: AMES SALMONELLA TYPHIMURIUM, Strain/Indicator: YG1024, Metabolic Activation: S-9, Method: STANDARD PLATE) was “active; positive”, the mutagenic call (Test System: AMES SALMONELLA TYPHIMURIUM, Strain/Indicator: YG1026, Metabolic Activation: RAT, LIVER, S-9, AROCLOR 1254, Method: STANDARD PLATE) was “active; positive” and the mutagenic call (Test System: AMES SALMONELLA TYPHIMURIUM, Strain/Indicator: YG1026, Metabolic Activation: S-9, Method: STANDARD PLATE) was “active; positive”. For the same compound, the mutagenic call (Test System: AMES SALMONELLA TYPHIMURIUM, Strain/Indicator: YG1029, Metabolic Activation: RAT, LIVER, S-9, AROCLOR 1254, Method: STANDARD PLATE) was “active; positive” and the mutagenic call (Test System: AMES SALMONELLA TYPHIMURIUM, Strain/Indicator: YG1029, Metabolic Activation: S-9, Method: STANDARD PLATE) was “active; positive”.
